Here are results for 23 molecules from PubChem BioAssay (NCI).

Each structure is given as a SMILES string.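 All cell lines were grown in 96-well plates and treated with compound for 48 hours. At the TGI there is no net growth.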

One experiment deals with CCRF-CEM leukemia. Put plainly: NCI tumour cell line growth inhibition, 48 h.
Molecule `O=C1c2ccccc2-c2c1c(-c1ccc(F)cc1)nc1ccc3ccccc3c21` yielded a TGI of more than 100 µM.
The same measure, in the same setting: for `CC1CCC(C(=O)O)(C(Br)C(=O)O)CC1` (stereo unspecified) the value was more than 100 µM.
The same measure, in the same setting: with `CCOC(=O)Cn1c(=O)c2nc(SC)sc2n(-c2ccccc2)c1=O` the figure was more than 100 µM.
`COc1ccc(-c2nc(SCC(=O)N/N=C/c3ccc(N(C)C)cc3)[nH]c2-c2ccc(OC)cc2)cc1`: the TGI was more than 100 µM.
Same read-out and setting: with `CC1=C[C@@H]2Cc3nc4cc(Cl)ccc4c(N)c3[C@H](C1)C2` the figure was 74 µM; with `CS(=O)(=O)OCC(CCl)(CCl)CCl`, more than 100 µM.
Still for that read-out and setting: with `CSC(=S)N(C)C` the figure was more than 100 µM; with `COc1ccc2c(C)cc(=O)oc2c1OC`, more than 100 µM; with `C=CCSc1nnc2cc(CN3CCCC3)c(-c3ccc(Cl)cc3)nn12`, more than 100 µM.
Still for that read-out and setting: for `O=c1[nH]c(Nc2nc3ccccc3[nH]2)nc(O)c1-c1ccccc1` the value was more than 100 µM; for `CC1=NS(=O)(=O)c2ccccc2N1`, more than 100 µM; for `COP(=O)(/C=C/c1cc(C(=O)OCc2ccccc2)n(S(=O)(=O)c2ccccc2)c1)OC`, more than 100 µM.
In turn, `CCOC(=O)c1ccc(NCC#CCN2CCOCC2)cc1` registered a TGI of more than 100 µM.
On the same count and under the same terms, for `O=C(O)CCC(=O)OC1N=C(c2ccccc2Cl)c2cc([N+](=O)[O-])ccc2NC1=O` (stereo unspecified) the value was more than 100 µM.
Molecule `COc1ccc(C2=N/C(=C\c3ccccc3)C(=O)O2)cc1` returned a TGI of more than 100 µM.
On the same count and under the same terms, with `CSc1nsc(-c2ccccc2)[s+]1` the figure was more than 100 µM.
`Cc1cc(C(=O)CCCCOc2ccc(C3=NCCO3)cc2)c(C)n1C` displayed a TGI of 46.6 µM.

Another experiment concerns HOP-62 NSCLC. Put plainly: NCI tumour cell line growth inhibition, 48 h.
For the molecule `O=C1c2ccccc2-c2c1c(-c1ccc(F)cc1)nc1ccc3ccccc3c21`, the TGI is more than 100 µM.
On the same count and under the same terms, for `CC1CCC(C(=O)O)(C(Br)C(=O)O)CC1` (stereo unspecified) the value was more than 100 µM.
As to `COc1cc(NS(C)(=O)=O)ccc1Nc1cc(C)[nH]c2ccc3nccc3c12`, the TGI is more than 100 µM.
`CCOC(=O)Cn1c(=O)c2nc(SC)sc2n(-c2ccccc2)c1=O`: the TGI is more than 100 µM.
Regarding `COc1ccc(-c2nc(SCC(=O)N/N=C/c3ccc(N(C)C)cc3)[nH]c2-c2ccc(OC)cc2)cc1`, the TGI is more than 100 µM.
The molecule `CC1=C[C@@H]2Cc3nc4cc(Cl)ccc4c(N)c3[C@H](C1)C2` returned a TGI of 24 µM.
On the same count and under the same terms, with `CSC(=S)N(C)C` the figure was more than 100 µM.
On the same count and under the same terms, for `COc1ccc2c(C)cc(=O)oc2c1OC` the value was more than 100 µM; for `C=CCSc1nnc2cc(CN3CCCC3)c(-c3ccc(Cl)cc3)nn12`, 45.4 µM; for `O=c1[nH]c(Nc2nc3ccccc3[nH]2)nc(O)c1-c1ccccc1`, more than 100 µM.
Same read-out and setting: for `CC1=NS(=O)(=O)c2ccccc2N1` the value was more than 100 µM; for `COP(=O)(/C=C/c1cc(C(=O)OCc2ccccc2)n(S(=O)(=O)c2ccccc2)c1)OC`, more than 100 µM.
On to `CCOC(=O)c1ccc(NCC#CCN2CCOCC2)cc1`, for which the TGI is more than 100 µM.
`CCN(CCCN(CC)C(=O)Nc1c(C)cccc1C)C(=O)Nc1c(C)cccc1C`: the TGI is more than 100 µM.
The same measure, in the same setting: with `CSC(=S)N/N=C(\C)c1ccc(S(=O)(=O)N(C)c2ccccc2)cc1` the figure was more than 100 µM; with `CCNC(=O)Cc1nc2c(N)ncnc2n1C1OC(CO)C(O)C1O` (stereo unspecified), more than 100 µM; with `O=C(O)CCC(=O)OC1N=C(c2ccccc2Cl)c2cc([N+](=O)[O-])ccc2NC1=O` (stereo unspecified), more than 100 µM.
In the case of `COc1ccc(C2=N/C(=C\c3ccccc3)C(=O)O2)cc1`, the TGI was more than 100 µM.
Same read-out and setting: with `CC1(C)C2CCC1(C)[C@H](n1c(=O)n([C@@H]3CC4CCC3(C)C4(C)C)c(=O)n([C@@H]3CC4CCC3(C)C4(C)C)c1=O)C2` the figure was more than 100 µM; with `CSc1nsc(-c2ccccc2)[s+]1`, more than 100 µM.
Molecule `CC(=N/N=C/c1ccccn1)/C(C)=N/N=C(C)/C(C)=N/N=C(C)/C(C)=N/N=C(C)/C(C)=N\N=C\c1ccccn1` gave a TGI of more than 100 µM.
For `Cc1cc(C(=O)CCCCOc2ccc(C3=NCCO3)cc2)c(C)n1C`, the TGI was more than 100 µM.

The next experiment concerns SF-295 CNS. Briefly: NCI tumour cell line growth inhibition, 48 h.
Regarding `O=C1c2ccccc2-c2c1c(-c1ccc(F)cc1)nc1ccc3ccccc3c21`, the TGI is more than 100 µM.
On the same count and under the same terms, with `CC1CCC(C(=O)O)(C(Br)C(=O)O)CC1` (stereo unspecified) the figure was more than 100 µM; with `COc1cc(NS(C)(=O)=O)ccc1Nc1cc(C)[nH]c2ccc3nccc3c12`, more than 100 µM; with `COc1ccc(-c2nc(SCC(=O)N/N=C/c3ccc(N(C)C)cc3)[nH]c2-c2ccc(OC)cc2)cc1`, more than 100 µM.
On the same count and under the same terms, with `CC1=C[C@@H]2Cc3nc4cc(Cl)ccc4c(N)c3[C@H](C1)C2` the figure was 20 µM; with `CS(=O)(=O)OCC(CCl)(CCl)CCl`, more than 100 µM; with `CSC(=S)N(C)C`, more than 100 µM.
Same read-out and setting: with `COc1ccc2c(C)cc(=O)oc2c1OC` the figure was more than 100 µM; with `C=CCSc1nnc2cc(CN3CCCC3)c(-c3ccc(Cl)cc3)nn12`, 53.7 µM; with `O=c1[nH]c(Nc2nc3ccccc3[nH]2)nc(O)c1-c1ccccc1`, more than 100 µM.
The molecule `CC1=NS(=O)(=O)c2ccccc2N1` registered a TGI of more than 100 µM.
Same read-out and setting: for `COP(=O)(/C=C/c1cc(C(=O)OCc2ccccc2)n(S(=O)(=O)c2ccccc2)c1)OC` the value was more than 100 µM; for `CCN(CCCN(CC)C(=O)Nc1c(C)cccc1C)C(=O)Nc1c(C)cccc1C`, more than 100 µM; for `CSC(=S)N/N=C(\C)c1ccc(S(=O)(=O)N(C)c2ccccc2)cc1`, more than 100 µM.
On the same count and under the same terms, with `CCNC(=O)Cc1nc2c(N)ncnc2n1C1OC(CO)C(O)C1O` (stereo unspecified) the figure was more than 100 µM.
Same read-out and setting: with `O=C(O)CCC(=O)OC1N=C(c2ccccc2Cl)c2cc([N+](=O)[O-])ccc2NC1=O` (stereo unspecified) the figure was more than 100 µM.
The molecule `COc1ccc(C2=N/C(=C\c3ccccc3)C(=O)O2)cc1` showed a TGI of more than 100 µM.
Same read-out and setting: for `CC1(C)C2CCC1(C)[C@H](n1c(=O)n([C@@H]3CC4CCC3(C)C4(C)C)c(=O)n([C@@H]3CC4CCC3(C)C4(C)C)c1=O)C2` the value was more than 100 µM; for `CC(=N/N=C/c1ccccn1)/C(C)=N/N=C(C)/C(C)=N/N=C(C)/C(C)=N/N=C(C)/C(C)=N\N=C\c1ccccn1`, more than 100 µM.
The same measure, in the same setting: for `Cc1cc(C(=O)CCCCOc2ccc(C3=NCCO3)cc2)c(C)n1C` the value was more than 100 µM.

The next experiment relates to SNB-19 CNS. Put plainly: NCI tumour cell line growth inhibition, 48 h.
`O=C1c2ccccc2-c2c1c(-c1ccc(F)cc1)nc1ccc3ccccc3c21` yielded a TGI of more than 100 µM.
The same measure, in the same setting: for `CC1CCC(C(=O)O)(C(Br)C(=O)O)CC1` (stereo unspecified) the value was more than 100 µM.
The same measure, in the same setting: for `COc1cc(NS(C)(=O)=O)ccc1Nc1cc(C)[nH]c2ccc3nccc3c12` the value was more than 100 µM; for `CCOC(=O)Cn1c(=O)c2nc(SC)sc2n(-c2ccccc2)c1=O`, more than 100 µM.
Still for that read-out and setting: for `COc1ccc(-c2nc(SCC(=O)N/N=C/c3ccc(N(C)C)cc3)[nH]c2-c2ccc(OC)cc2)cc1` the value was more than 100 µM.
Turning to `CC1=C[C@@H]2Cc3nc4cc(Cl)ccc4c(N)c3[C@H](C1)C2`, the TGI was found to be 24 µM.
For the molecule `CS(=O)(=O)OCC(CCl)(CCl)CCl`, the TGI was more than 100 µM.
`CSC(=S)N(C)C` came in with a TGI of more than 100 µM.
The same measure, in the same setting: with `COc1ccc2c(C)cc(=O)oc2c1OC` the figure was more than 100 µM; with `C=CCSc1nnc2cc(CN3CCCC3)c(-c3ccc(Cl)cc3)nn12`, 71.7 µM.
Still for that read-out and setting: for `O=c1[nH]c(Nc2nc3ccccc3[nH]2)nc(O)c1-c1ccccc1` the value was more than 100 µM; for `CC1=NS(=O)(=O)c2ccccc2N1`, more than 100 µM.
On the same count and under the same terms, for `COP(=O)(/C=C/c1cc(C(=O)OCc2ccccc2)n(S(=O)(=O)c2ccccc2)c1)OC` the value was more than 100 µM; for `CCOC(=O)c1ccc(NCC#CCN2CCOCC2)cc1`, more than 100 µM.
The molecule `CCN(CCCN(CC)C(=O)Nc1c(C)cccc1C)C(=O)Nc1c(C)cccc1C` showed a TGI of more than 100 µM.
Consider `CSC(=S)N/N=C(\C)c1ccc(S(=O)(=O)N(C)c2ccccc2)cc1`, for which the TGI is more than 100 µM.
On the same count and under the same terms, for `CCNC(=O)Cc1nc2c(N)ncnc2n1C1OC(CO)C(O)C1O` (stereo unspecified) the value was more than 100 µM; for `O=C(O)CCC(=O)OC1N=C(c2ccccc2Cl)c2cc([N+](=O)[O-])ccc2NC1=O` (stereo unspecified), more than 100 µM.
`COc1ccc(C2=N/C(=C\c3ccccc3)C(=O)O2)cc1` displayed a TGI of more than 100 µM.
The same measure, in the same setting: with `CSc1nsc(-c2ccccc2)[s+]1` the figure was more than 100 µM.
On the same count and under the same terms, with `CC(=N/N=C/c1ccccn1)/C(C)=N/N=C(C)/C(C)=N/N=C(C)/C(C)=N/N=C(C)/C(C)=N\N=C\c1ccccn1` the figure was more than 100 µM.
The same measure, in the same setting: with `Cc1cc(C(=O)CCCCOc2ccc(C3=NCCO3)cc2)c(C)n1C` the figure was more than 100 µM.

In another experiment the test system is NCI/ADR-RES ovarian. Put plainly: NCI tumour cell line growth inhibition, 48 h.
For `O=C1c2ccccc2-c2c1c(-c1ccc(F)cc1)nc1ccc3ccccc3c21`, the TGI was more than 100 µM.
Same read-out and setting: for `CC1CCC(C(=O)O)(C(Br)C(=O)O)CC1` (stereo unspecified) the value was more than 100 µM.
Same read-out and setting: with `COc1cc(NS(C)(=O)=O)ccc1Nc1cc(C)[nH]c2ccc3nccc3c12` the figure was more than 100 µM.
On the same count and under the same terms, with `COc1ccc(-c2nc(SCC(=O)N/N=C/c3ccc(N(C)C)cc3)[nH]c2-c2ccc(OC)cc2)cc1` the figure was more than 100 µM; with `CC1=C[C@@H]2Cc3nc4cc(Cl)ccc4c(N)c3[C@H](C1)C2`, 25 µM.
In turn, `CS(=O)(=O)OCC(CCl)(CCl)CCl` displayed a TGI of more than 100 µM.
On the same count and under the same terms, with `CSC(=S)N(C)C` the figure was more than 100 µM; with `COc1ccc2c(C)cc(=O)oc2c1OC`, more than 100 µM; with `C=CCSc1nnc2cc(CN3CCCC3)c(-c3ccc(Cl)cc3)nn12`, 56.3 µM.
On the same count and under the same terms, with `O=c1[nH]c(Nc2nc3ccccc3[nH]2)nc(O)c1-c1ccccc1` the figure was more than 100 µM.
For `COP(=O)(/C=C/c1cc(C(=O)OCc2ccccc2)n(S(=O)(=O)c2ccccc2)c1)OC`, the TGI is more than 100 µM.
The same measure, in the same setting: for `CCOC(=O)c1ccc(NCC#CCN2CCOCC2)cc1` the value was more than 100 µM; for `CCN(CCCN(CC)C(=O)Nc1c(C)cccc1C)C(=O)Nc1c(C)cccc1C`, more than 100 µM.
For the molecule `CSC(=S)N/N=C(\C)c1ccc(S(=O)(=O)N(C)c2ccccc2)cc1`, the TGI is more than 100 µM.
Turning to `CCNC(=O)Cc1nc2c(N)ncnc2n1C1OC(CO)C(O)C1O` (stereo unspecified), the TGI is more than 100 µM.
